Data as given in patent US20250360145A1, “CSF-1R INHIBITORS AND USES THEREOF” (Myrobalan Therapeutics, Inc., priority 2022, published 2025).
Where two headings read alike, the source gives them in different places.

Tests used:
[1] = target: CSF-1R (Homo sapiens (Human), UniProt P07333); test: Biochemical HTRF kinase assay, CSF-1R; conditions: Table 2; recombinant human CSF-1R;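 also: enzyme incubated with inhibitor plus a substrate and ATP mix for one hour at room temperature before HTRF detection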
[2] = test system: Ba/F3_CSF-1R (stably expressing human CSF-1R kinase); test: Cell proliferation assay, Ba/F3_CSF-1R; assay type: cell-based
[3] = test system: EOC2 cell; test: Cell proliferation assay, EOC2; assay type: cell-based, mouse
[4] = BaF3, 72 h, Ba/F3_CSF-1R cells, 72 hours treatment, read-out: CSF-1R BaF3 EC50
[5] = Mus musculus, 72 h, EOC2 cells, 72 hours treatment, read-out: ECO2 EC50
[6] = Ba/F3_CSF-1R cells, 72 hours treatment, read-out: CSF-1R BaF3 EC50
[7] = EOC2 cells, 72 hours treatment, read-out: ECO2 EC50

Sequence of CSF-1R (P07333 20-972): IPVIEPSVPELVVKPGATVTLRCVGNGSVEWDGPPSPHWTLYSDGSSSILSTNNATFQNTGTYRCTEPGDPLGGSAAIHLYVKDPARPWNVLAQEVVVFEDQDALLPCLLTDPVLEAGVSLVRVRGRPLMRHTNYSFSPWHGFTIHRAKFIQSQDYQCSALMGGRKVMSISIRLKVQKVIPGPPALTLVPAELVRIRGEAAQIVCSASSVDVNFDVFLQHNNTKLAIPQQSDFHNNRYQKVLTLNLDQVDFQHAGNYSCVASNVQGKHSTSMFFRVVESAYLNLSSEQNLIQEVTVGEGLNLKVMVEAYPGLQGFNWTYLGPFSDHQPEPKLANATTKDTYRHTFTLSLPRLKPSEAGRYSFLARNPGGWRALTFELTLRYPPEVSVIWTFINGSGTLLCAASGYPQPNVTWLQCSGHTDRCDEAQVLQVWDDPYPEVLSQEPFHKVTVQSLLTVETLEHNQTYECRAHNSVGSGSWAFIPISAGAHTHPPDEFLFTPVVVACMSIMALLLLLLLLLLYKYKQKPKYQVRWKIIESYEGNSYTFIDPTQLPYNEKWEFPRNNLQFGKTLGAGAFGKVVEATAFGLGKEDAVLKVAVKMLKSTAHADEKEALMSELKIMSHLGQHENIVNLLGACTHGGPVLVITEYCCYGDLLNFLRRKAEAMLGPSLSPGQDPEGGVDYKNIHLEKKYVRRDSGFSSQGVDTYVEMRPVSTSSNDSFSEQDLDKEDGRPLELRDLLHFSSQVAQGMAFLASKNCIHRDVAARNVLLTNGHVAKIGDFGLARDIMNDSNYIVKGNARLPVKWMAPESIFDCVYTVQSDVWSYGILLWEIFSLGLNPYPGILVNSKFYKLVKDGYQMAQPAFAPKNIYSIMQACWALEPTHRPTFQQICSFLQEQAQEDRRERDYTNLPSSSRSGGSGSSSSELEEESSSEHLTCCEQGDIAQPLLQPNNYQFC

## COc1ccc(COc2ncc(Cc3ccnc4cc(-c5ccccn5)cnc34)cc2OC)nc1 [Example 139]
[1]
  IC50: 11.3 nM
[2]; [4]
  EC50: 8.8 nM
[3]; [5]
  EC50: 7.9 nM

## COc1ccc(COc2ccc(Cc3ccnc4ccc(F)cc34)cc2OC)cc1 [Example 24]
[1]
  IC50: 25 nM
[2]; [4]
  EC50: 177 nM
[3]; [5]
  EC50: 239 nM

## COc1cnc2c(Cc3cnc(OCc4cc5n(n4)[C@H]4C[C@H]4C5)c(OC)c3)ccnc2c1 [Example 111]
[1]
  IC50: 2.2 nM
[2]; [4]
  EC50: 35 nM
[3]; [5]
  EC50: 17.4 nM

## COc1ccc(COc2ncc(C(C)c3ccnc4cc(OC)cnc34)cc2OC)nc1 (stereo not drawn) [Example 77]
[1]
  IC50: 101 nM
[2]; [4]
  EC50: 543 nM
[3]; [5]
  EC50: 360 nM

## COc1ccc(COc2ncc(Cc3ccnc4cc(N5CCNCC5)cnc34)cc2OC)nc1 [Example 135]
[1]
  IC50: 22.4 nM
[2]; [4]
  EC50: 25.8 nM
[3]; [5]
  EC50: 66.5 nM

## COc1cnc2c(Cc3cnc(OCc4ccc(C(F)(F)F)cn4)c(OC)c3)ccnc2c1 [Example 61]
[1]
  IC50: 3.9 nM
[2]; [4]
  EC50: 70.6 nM
[3]; [5]
  EC50: 47.4 nM

## COc1cnc2c(Cc3cnc(OCc4cc(F)cnc4OC)c(OC)c3)ccnc2c1 [Example 41]
[1]
  IC50: 39.9 nM
[2]; [4]
  EC50: > 1000 nM
[3]; [5]
  EC50: > 1000 nM

## COc1cnc2c(Cc3cnc(OCc4ccc(OC)nn4)c(OC)c3)ccnc2c1 [Example 32, 3-methoxy-8-((5-methoxy-6-((6-methoxypyridazin-3-yl)methoxy)pyridin-3-yl)methyl)-1,5-naphthyridine]
[1]
  IC50: 20.1 nM
[2]; [4]
  EC50: 267 nM
[3]; [5]
  EC50: 129 nM

## COc1cnc2c(Cc3cnc(OCc4cc5n(n4)CCCOC5)c(OC)c3)ccnc2c1 [Example 107]
[1]
  IC50: 1.6 nM
[2]; [4]
  EC50: 65.9 nM
[3]; [5]
  EC50: 37.1 nM

## COc1ccc2c(Cc3cnc(OCc4cnn(C)c4)c(OC)c3)ccnc2c1 [Example 31]
[1]
  IC50: 21.3 nM
[2]; [4]
  EC50: > 1000 nM
[3]; [5]
  EC50: > 1000 nM

## COc1ccc2c(Cc3ccc(OCc4cnc(C)s4)c(OC)c3)ccnc2c1 [Example 35]
[1]
  IC50: 16.1 nM
[2]; [4]
  EC50: 449 nM
[3]; [5]
  EC50: 392 nM

## COc1ccc(COc2ncc(Cc3ccnc4cc(OC)ncc34)cc2OC)nc1 [Example 52]
[1]
  IC50: 49.7 nM
[2]; [4]
  EC50: 482 nM
[3]; [5]
  EC50: 209 nM

## COc1cnc2c(Cc3cnc(OCc4cc(C5CC5)n(C)n4)c(OC)c3)ccnc2c1 [Example 109]
[1]
  IC50: 1.1 nM
[2]; [4]
  EC50: 102 nM
[3]; [5]
  EC50: 43.7 nM

## COc1cnc2c(Cc3ccc4nc(N5CCC(OC)CC5)ncc4c3)ccnc2c1 [Example 152]
[1]
  IC50: > 1000 nM
[2]; [4]
  EC50: > 1000 nM
[3]; [5]
  EC50: > 1000 nM

## COc1cnc2c(Cc3ccc4nc([C@H]5CC[C@@H](OC)CC5)cnc4c3)ccnc2c1 [Example 155]
[1]
  IC50: 258 nM
[2]; [6]
  EC50: 607 nM
[3]; [7]
  EC50: > 1000 nM

## COc1ccc(COc2ccc(Cc3ccnc4cc(OC)cnc34)cn2)nc1 [Example 151, 3-methoxy-8-((6-((5-methoxypyridin-2-yl)methoxy)pyridin-3-yl)methyl)-1,5-naphthyridine]
[1]
  IC50: 22.6 nM
[2]; BaF3, 72 h, read-out: CSF-1R BaF3 EC50 (nM)
  EC50: 412 nM
[3]; Mus musculus, 72 h, read-out: ECO2 EC50 (nM)
  EC50: 280 nM

## COc1cnc2c(Cc3cnc(OCc4cccn(C)c4=O)c(OC)c3)ccnc2c1 [Example 124]
[1]
  IC50: 320 nM
[2]; [4]
  EC50: > 1000 nM
[3]; [5]
  EC50: 442 nM

## CCc1cc(COc2ncc(Cc3ccnc4cc(OC)cnc34)cc2OC)on1 [Example 57]
[1]
  IC50: 19 nM
[2]; [4]
  EC50: 178 nM
[3]; [5]
  EC50: 98.6 nM

## COc1cnc2c(Cc3cnc(OCc4cc(C(C)OC)n(C)n4)c(OC)c3)ccnc2c1 (stereo not drawn) [Example 102]
[1]
  IC50: 4 nM
[2]; [4]
  EC50: 134 nM
[3]; [5]
  EC50: 77 nM

## COc1ccc(COc2ncc(Cc3c(F)cnc4cc(OC)cnc34)cc2OC)nc1 [Example 146]
[1]
  IC50: 208 nM
[2]; [4]
  EC50: > 1000 nM
[3]; [5]
  EC50: > 1000 nM

## COc1cnc2c(Cc3cnc(OCc4cc(C)no4)c(OC)c3)ccnc2c1 [Example 46, 5-(((3-methoxy-5-((7-methoxy-1,5-naphthyridin-4-yl)methyl)pyridin-2-yl)oxy)methyl)-3-methylisoxazole]
[1]
  IC50: 22.4 nM
[2]; [4]
  EC50: 332 nM
[3]; [5]
  EC50: 201 nM

## COc1cnc2c(Cc3cnc(OCc4cccc(N5CCC5)n4)c(OC)c3)ccnc2c1 [Example 118]
[1]
  IC50: 3.6 nM
[2]; [4]
  EC50: 96.9 nM
[3]; [5]
  EC50: 34.5 nM

## COCc1cc(COc2ncc(Cc3ccnc4cc(OC)cnc34)cc2OC)nn1C [Example 96]
[1]
  IC50: 16.2 nM
[2]; [4]
  EC50: 234 nM
[3]; [5]
  EC50: 190 nM

## COCc1ccc(COc2ncc(Cc3ccnc4cc(OC)cnc34)cc2OC)nc1 [Example 71]
[1]
  IC50: 25.4 nM
[2]; [4]
  EC50: 359 nM
[3]; [5]
  EC50: 168 nM

## COc1cnc2c(Cc3cnc(OCc4nc(C)no4)c(OC)c3)ccnc2c1 [Example 70]
[1]
  IC50: 272 nM
[2]; [4]
  EC50: > 1000 nM
[3]; [5]
  EC50: > 1000 nM

## COc1ccc(COc2ncc(C(F)c3ccnc4cc(OC)cnc34)cc2OC)nc1 (stereo not drawn) [Example 84, 8-(fluoro(5-methoxy-6-((5-methoxypyridin-2-yl)methoxy)pyridin-3-yl)methyl)-3-methoxy-1,5-naphthyridine]
[1]
  IC50: 28.4 nM
[2]; [4]
  EC50: > 1000 nM
[3]; [5]
  EC50: > 1000 nM

## COc1cnc2c(Cc3cnc(OCc4cc(C(F)(F)F)n(C)n4)c(OC)c3)ccnc2c1 [Example 97]
[1]
  IC50: 2 nM
[2]; [4]
  EC50: 34 nM
[3]; [5]
  EC50: 82.7 nM

## COc1ccc(COc2ccc(Cc3ccnc4cnccc34)cc2OC)cc1 [Example 2, 4-(3-methoxy-4-((4-methoxybenzyl)oxy)benzyl)-1,7-naphthyridine]
[1]
  IC50: 13.4 nM
[2]; [4]
  EC50: 75 nM
[3]; [5]
  EC50: 126 nM

## COc1ccc(COc2ccc(Cc3ncnc4cc(OC)ccc34)cc2OC)cc1 [Example 5]
[1]
  IC50: 21 nM
[2]; [4]
  EC50: 263 nM
[3]; [5]
  EC50: 310 nM

## COc1cnc2c(Cc3cnc(OCc4cc(C)on4)c(OC)c3)ccnc2c1 [Example 51]
[1]
  IC50: 105 nM
[2]; [4]
  EC50: 590 nM
[3]; [5]
  EC50: 225 nM

## COc1cnc2c(Cc3cnc(OCc4ccc5cnn(C)c5n4)c(OC)c3)ccnc2c1 [Example 122]
[1]
  IC50: 14 nM
[2]; [4]
  EC50: 131 nM
[3]; [5]
  EC50: 108 nM

## COc1cnc2c(Cc3cnc(OCc4cc5n(n4)CCN(C)C5)c(OC)c3)ccnc2c1 [Example 75]
[1]
  IC50: 32 nM
[2]; [4]
  EC50: 949 nM
[3]; [5]
  EC50: 448 nM

## COc1cnc2c(Cc3cnc(OCc4cc5cnccn5n4)c(OC)c3)ccnc2c1 [Example 145]
[1]
  IC50: 39.1 nM
[2]; [4]
  EC50: 229 nM
[3]; [5]
  EC50: 178 nM

## COc1ccc2c(Cc3ccc(OCc4ccc(C(F)(F)F)cc4)c(OC)c3)ccnc2c1 [Example 14]
[1]
  IC50: 118 nM
[2]; [4]
  EC50: 157 nM
[3]; [5]
  EC50: 132 nM

## COc1ccc2c(Cc3ccc(OCc4cc(C)no4)c(OC)c3)ccnc2c1 [Example 34]
[1]
  IC50: 23.2 nM
[2]; [4]
  EC50: 493 nM
[3]; [5]
  EC50: 462 nM

## COc1cnc2c(Cc3ccc4nc(C5CCOCC5)cnc4c3)ccnc2c1 [Example 157]
[1]
  IC50: 543 nM
[2]; [4]
  EC50: > 1000 nM
[3]; [5]
  EC50: > 1000 nM

## COc1cnc2c(Cc3cnc(OCc4cnc5c(c4)CC[C@H]5OC)c(OC)c3)ccnc2c1 (stereo in doubt) [Example 105]
[1]
  IC50: 2.4 nM
[2]; [6]
  EC50: 108 nM
[3]; [7]
  EC50: 65 nM

## COc1cnc2c(Cc3cnc(OCc4ccn5nccc5c4)c(OC)c3)ccnc2c1 [Example 147]
[1]
  IC50: 7.9 nM
[2]; [4]
  EC50: 60.9 nM
[3]; [5]
  EC50: 78.8 nM

## COc1ccc2c(Cc3ccc(OCc4ccc5ccnn5c4)c(OC)c3)ccnc2c1 [Example 20]
[1]
  IC50: 11 nM
[2]; [4]
  EC50: 134 nM
[3]; [5]
  EC50: 130 nM

## COc1cnc2c(Cc3cnc(OCc4cc5n(n4)CCO[C@H]5C)c(OC)c3)ccnc2c1 (stereo in doubt) [Example 115]
[1]
  IC50: 4 nM
[2]; [6]
  EC50: 158 nM
[3]; [7]
  EC50: 81.9 nM

## COc1cnc2c(Cc3cc(OC)c4nc(N5CCC(OC)CC5)ncc4c3)ccnc2c1 [Example 150]
[1]
  IC50: 947 nM
[2]; [4]
  EC50: > 1000 nM
[3]; [5]
  EC50: > 1000 nM

## COc1cnc2c(Cc3cnc(OCc4cccc(C(=O)N(C)C)n4)c(OC)c3)ccnc2c1 [Example 117]
[1]
  IC50: 21.1 nM
[2]; [4]
  EC50: 344 nM
[3]; [5]
  EC50: 170 nM

## COc1ccc(COc2ncc(Cc3ccnc4ccc(OC)nc34)cc2OC)nc1 [Example 53]
[1]
  IC50: 60.1 nM
[2]; [4]
  EC50: 338 nM
[3]; [5]
  EC50: 278 nM

## COc1ccc2c(Cc3ccc(OCc4ccn5ccnc5c4)c(OC)c3)ccnc2c1 [Example 6, 4-(4-(imidazo[1,2-a]pyridin-7-ylmethoxy)-3-methoxybenzyl)-7-methoxy quinoline]
[1]
  IC50: 8.2 nM
[2]; [4]
  EC50: 551 nM
[3]; [5]
  EC50: 592 nM

## COc1cnc2c(Cc3cnc(OCc4ccn(C)n4)c(OC)c3)ccnc2c1 [Example 48]
[1]
  IC50: 8.2 nM
[2]; [4]
  EC50: 586 nM
[3]; [5]
  EC50: 296 nM

## COc1cnc2c(Cc3cnc(OCc4cnc5c(c4)CCC5OC)c(OC)c3)ccnc2c1 (stereo not drawn) [Example 92]
[1]
  IC50: 1.8 nM
[2]; [4]
  EC50: 67.9 nM
[3]; [5]
  EC50: 26 nM

## COc1cnc2c(Cc3cnc(OCc4cccc(N(C)C(C)=O)n4)c(OC)c3)ccnc2c1 [Example 123]
[1]
  IC50: 52.5 nM
[2]; [4]
  EC50: 128 nM
[3]; [5]
  EC50: 77 nM

## COc1ccc(COc2ncc(Cc3ccnc4cc(F)cnc34)cc2OC)nc1 [Example 64]
[1]
  IC50: 21.8 nM
[2]; [4]
  EC50: 400 nM
[3]; [5]
  EC50: 973 nM

## COc1cnc2c(Cc3cnc(OCc4nc5cccnc5n4C)c(OC)c3)ccnc2c1 [Example 132]
[1]
  IC50: 879 nM
[2]; [4]
  EC50: > 1000 nM
[3]; [5]
  EC50: > 1000 nM

## [2H]C([2H])(c1cnc(OCc2ccc(OC)cn2)c(OC)c1)c1ccnc2cc(OC)cnc12 [Example 95]
[1]
  IC50: 3.4 nM
[2]; [4]
  EC50: 42.2 nM
[3]; [5]
  EC50: 54.3 nM

## COc1cnc2c(Cc3cnc(OCc4ccc(C5COC5)cn4)c(OC)c3)ccnc2c1 [Example 76]
[1]
  IC50: 13.6 nM
[2]; [4]
  EC50: 302 nM
[3]; [5]
  EC50: 82.1 nM

## COc1cnc2c(Cc3cnc(OCc4ccc(C5CN(C)C5)cn4)c(OC)c3)ccnc2c1 [Example 89]
[1]
  IC50: 286 nM
[2]; [4]
  EC50: > 1000 nM
[3]; [5]
  EC50: > 1000 nM
